Measured values: US7709495B2, “Methods and reagents for the treatment of inflammatory disorders” (CombinatoRx, Incorporated, priority 2003, dated 2010)
Read-outs that look alike come from different tables or passages of the source.

How the values were obtained:
[1] = test system: TNFα secretion; experiment: TNFα secretion assay (ELISA), lipopolysaccharide stimulated white blood cells; type: cell-based; conditions: Homo sapiens, PBMC, read-out: % Inhibition TNFα PBMC LPS
Experimental: The compound dilution matrix was assayed for the suppression of phorbol 12-myristate 13 acetate/ionomycin stimulated IL-1 and TNFα secretion as well as the suppression of lipopolysaccharide-stimulated TNFα secretion from human white blood cells using the ELISA method, as described below.
(§1) A stock solution containing prednisolone (0.36 mg/ml) was prepared in DMSO. A stock solution containing ibudilast (1.84 mg/ml) was prepared in DMSO. Master plates were prepared for dilutions of the stock solutions above.
(§2) The final single agent plates were generated by transferring 1 μL of stock solution from the specific master plate to separate dilution plates containing 99 μL of media (RPMI; Gibco BRL, #11875-085), 10% fetal bovine serum (Gibco BRL, #25140-097), 2% penicillin/streptomycin (Gibco BRL, #15140-122)) using the Packard Mini-Trak liquid handler. The dilution plates were then mixed and a 10 μL aliquot transferred from each dilution plate to the final assay plate (polystyrene 384-well plate (NalgeNunc)), which had been pre-filled with 30 μL/well RPMI media containing 33 ng/mL phorbol 12-myristate 13-acetate (Sigma, P-1585) and 2.475 ng/mL ionomycin (Sigma, I-0634) or alternatively for the LPS stimulated assay RPMI media containing 2 μg/ml lipopolysaccharide (Sigma, L-4130).
The effects of test compound combinations on TNFα secretion were assayed in white blood cells from human buffy coat stimulated with phorbol 12-myistate 13-acetate, or lipopolysaccharide as follows. Human white blood cells from buffy coat were diluted 1:50 in media (RPMI; Gibco BRL, #11875-085), 10% fetal bovine serum (Gibco BRL, #25140-097), 2% penicillin/streptomycin (Gibco BRL, #15140-122)) and 50 μL of the diluted white blood cells were placed in each well of the final assay plate created in the above section. After 16-18 hours of incubation at 37° C. with 5% CO2 in a humidified incubator, the plate was centrifuged and the supernatant transferred to a white opaque polystyrene 384 well plate (NalgeNunc, Maxisorb) coated with an anti-TNFα antibody (PharMingen, #551220). After a two-hour incubation, the plate was washed (Tecan Powerwasher 384) with PBS containing 0.1% Tween 20 and incubated for one additional hour with biotin labeled anti-TNFα antibody (PharMingen, #554511) and HRP coupled to streptavidin (PharMingen, #13047E). The plate was then washed again with 0.1% Tween 20/PBS. An HRP-luminescent substrate was added to each well, and the light intensity of each well was measured using a plate luminometer.
(§3) The percent inhibition (% I) for each well was calculated using the following formula: % I=[(avg. untreated wells−treated well)/(avg. untreated wells)]×100
(§4) The average untreated well value (avg. untreated wells) is the arithmetic mean of 30 wells from the same assay plate treated with vehicle alone.
TNFα secretion was measured by ELISA as described above after stimulation with lipopolysaccharide. The effects of varying concentrations of ibudilast, prednisolone and a combination of ibudilast and prednisolone were compared to control wells.

[2] = test system: white blood cells from human buffy coat; experiment: alamarBlue assay (toxicity/cell viability), PMA/ionomycin stimulated; type: cell-based; conditions: PBMC, read-out: % Inhibition of Proliferation of PBMC PI
Experimental: as §1, §2, §3, §4
The toxicity of the test combination were assessed using alamarBlue® assayed in white blood cells from human buffy coat stimulated with LPS or phorbol 12-myistate 13-acetate and Ionomycin, as follows. Human white blood cells from buffy coat were diluted 1:50 in media (RPMI; Gibco BRL, #11875-085), 10% fetal bovine serum (Gibco BRL, #25140-097), 2% penicillin/streptomycin (Gibco BRL, #15140-122)) and 50 μL of the diluted white blood cells was placed in each well of the final assay plate created in the above section. After 16-18 hours of incubation at 37° C. with 5% CO2 in a humidified incubator, 5 μl of alamarBlue® (BioSource Intl. Inc., DAL 1100) was added to all of the wells. After 20-24 hours of incubation in 37° C. in a humidified incubator, fluorescence was then measured using a plate fluorometer.
Cell viability was measured using the alamarBlue® assay described above after stimulation with phorbol 12-myristate 13-acetate and ionomycin. The effects of varying concentrations of ibudilast, prednisolone and a combination of ibudilast and prednisolone were compared to control wells.

CC(C)C(=O)c1c(C(C)C)nn2ccccc12 [Ibudilast, ibudilast]
inhibition at 0.062 µM ([1]; ibudilast 0.062 μM alone): 17% | inhibition at 0.12 µM ([1]; ibudilast 0.12 μM alone): 24% | inhibition at 0.25 µM ([1]; ibudilast 0.25 μM alone): 41% | inhibition at 0.5 µM ([1]; ibudilast 0.5 μM alone): 46% | inhibition at 1 µM ([1]; ibudilast 1 μM alone): 58% | inhibition at 2 µM ([1]; ibudilast 2 μM alone): 66% | inhibition at 4 µM ([1]; ibudilast 4 μM alone): 70% | inhibition at 8 µM ([1]; ibudilast 8 μM alone): 79% | inhibition at 0.062 µM ([2]; ibudilast 0.062 μM alone): -1.5% | inhibition at 0.12 µM ([2]; ibudilast 0.12 μM alone): -5.1% | inhibition at 0.25 µM ([2]; ibudilast 0.25 μM alone): 0.84% | inhibition at 0.5 µM ([2]; ibudilast 0.5 μM alone): -4% | inhibition at 1 µM ([2]; ibudilast 1 μM alone): -1.9% | inhibition at 2 µM ([2]; ibudilast 2 μM alone): 2.7% | inhibition at 4 µM ([2]; ibudilast 4 μM alone): 3.3% | inhibition at 8 µM ([2]; ibudilast 8 μM alone): 6.9%

C[C@]12C=CC(=O)C=C1CC[C@@H]1[C@@H]2[C@@H](O)C[C@@]2(C)[C@H]1CC[C@]2(O)C(=O)CO [Prednisolone, prednisolone]
inhibition at 0.0078 µM ([1]; prednisolone 0.0078 μM alone): 0.085% | inhibition at 0.016 µM ([1]; prednisolone 0.016 μM alone): 17% | inhibition at 0.031 µM ([1]; prednisolone 0.031 μM alone): 24% | inhibition at 0.062 µM ([1]; prednisolone 0.062 μM alone): 47% | inhibition at 0.12 µM ([1]; prednisolone 0.12 μM alone): 57% | inhibition at 0.25 µM ([1]; prednisolone 0.25 μM alone): 66% | inhibition at 0.5 µM ([1]; prednisolone 0.5 μM alone): 68% | inhibition at 1 µM ([1]; prednisolone 1 μM alone): 70% | inhibition at 0.0078 µM ([2]; prednisolone 0.0078 μM alone): 4% | inhibition at 0.016 µM ([2]; prednisolone 0.016 μM alone): 1% | inhibition at 0.031 µM ([2]; prednisolone 0.031 μM alone): 1.7% | inhibition at 0.062 µM ([2]; prednisolone 0.062 μM alone): -1.7% | inhibition at 0.12 µM ([2]; prednisolone 0.12 μM alone): 3.2% | inhibition at 0.25 µM ([2]; prednisolone 0.25 μM alone): 4.6% | inhibition at 0.5 µM ([2]; prednisolone 0.5 μM alone): 0.19% | inhibition at 1 µM ([2]; prednisolone 1 μM alone): 3.1%
